Measured values from article PMC4183669 (Chemistry and physics of lipids, 2014).
Like-named read-outs stand apart in the source and are kept apart here. Peptide text beside a SMILES is read from it. * marks the point of attachment. X1 = CCCCCCCCCCCCCCCC(=O)OC[C@H](COP(=O)([O-])OCC[N+](C)(C)C)O*

Assays:
[1] = molecular target: bee-venom phospholipase A2 (Apis mellifera, UniProt P00630); type: biochemical
membrane fusion = conditions: ref Epand, 2003; cited from earlier work

Sequence of bee-venom phospholipase A2 (P00630 34-167 limits assumed): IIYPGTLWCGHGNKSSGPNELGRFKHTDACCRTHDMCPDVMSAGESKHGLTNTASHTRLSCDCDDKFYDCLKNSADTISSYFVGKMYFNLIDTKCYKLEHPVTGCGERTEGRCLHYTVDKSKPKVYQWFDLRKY

Compound	time to complete hydrolysis by PLA2 [1]	time to complete hydrolysis by PLA2 ([1]; 40°C)	time to complete hydrolysis by PLA2 ([1]; pH 8.5)	hydrolysis by bee-venom PLA2 (result in words) [1]	antiviral action by inhibition of membrane fusion (membrane fusion)
CCCCCCCCCCCCCCCC(=O)OC[C@H](COP(=O)([O-])OCC[N+](C)(C)C)OC(=O)CCCCCCCCCCCCCCC [DPPC, dipalmitoyl phosphatidylcholine, reference compound]	10 min	≤ 90 min	10 min		
CCCCCCCCCCCCCCCC(=O)OC[C@H](COP(=O)([O-])OCC[N+](C)(C)C)OC(=O)CNC(=O)CNC(=O)[C@@H]1CCCN1C(=O)CN.Cl [compound 10, 1-Palmitoyl-2-(gly-pro-gly-gly)-sn-glycero-3-phosphocholine hydrochloride] (H-GPGG-X1)			≤ 90 min	completely hydrolyzed	
CCCCCCCCCCCCCCCC(=O)OC[C@H](COP(=O)([O-])OCC[N+](C)(C)C)OC(=O)CNC(=O)[C@H](Cc1ccccc1)NC(=O)[C@@H](Cc1ccccc1)NC(=O)OCc1ccccc1 [compound 13, 1-Palmitoyl-2-(CBZ-D-phe-phe-gly)-sn-glycero-3-phosphocholine]			≤ 90 min	completely hydrolyzed	
CCCCCCCCCCCCCCCC(=O)OC[C@H](COP(=O)([O-])OCC[N+](C)(C)C)OC(=O)CNC(=O)OC(C)(C)C [compound 14, 1-palmitoyl-2-(N-BOC-glycyl)-sn-glycero-3-phosphocholine]	20 min			readily hydrolyzed	
carbobenzoxy-D-Phe-Phe-Gly [compound 5]					blocking viral infection by inhibiting membrane fusion
